From US8920559B2, “Screening for solid forms by ultrasound crystallization and cocrystallization using ultrasound” (Aptuit (West Lafayette), LLC, priority 2004, dated 2014)

Key:
[1] = White, Amber and Yellow polymorphic forms of WAY; literature (Yeadon 1985; Xiaorong He 2000); cited from earlier work
[2] = cocrystal compared with crystals of fluoxetine HCl
[3] = Form I vs Form II, room temperature; Zhang et al. 2002; cited from earlier work

Compound	relative stability of the three forms [1]	other results
CC(=O)Nc1ccc(C)cc1[N+](=O)[O-] [amber form, 4-methyl-2-nitroacetanilide]	least stable	
CNCCC(Oc1ccc(C(F)(F)F)cc1)c1ccccc1.Cl.O=C(O)c1ccccc1 (centres unmarked) [fluoxetine HCl:benzoic acid]		dissolution rate [2]: lower dissolution rate
Cc1ccnc(NS(=O)(=O)c2ccc(N)cc2)n1 [sulfamerazine Form II, Sulfamerazine]		relative stability of polymorphic forms [3]: most stable form at room temperature
CC(=O)Nc1ccc(C)cc1[N+](=O)[O-] [white form, 4-methyl-2-nitroacetanilide]	most stable form	
CC(=O)Nc1ccc(C)cc1[N+](=O)[O-] [yellow form, 4-methyl-2-nitroacetanilide]	more stable than the amber form	
